Results as given in ChEMBL document CHEMBL1795314, “Mycobacterium tuberculosis and cholinesterase inhibitors from Voacanga globosa” (Eur J Med Chem, 2011).
pIC50: −log10 of the molar value. In brackets after ≈: the same amount, converted by molar mass.

What was measured:
Acetylcholinesterase = Acetylcholinesterase (Electrophorus electricus, UniProt O42275); assay: Inhibition of electric eel AChE by colorimetric Ellman's assay
[1] = test system: Mycobacterium tuberculosis; assay: Antitubercular activity against replicating Mycobacterium tuberculosis H37Rv ATCC 27294 at 100 ug/ml after 1 week by microplate alamar blue assay; assay type: functional; conditions: H37Rv ATCC 27294, 168 h
Cholinesterase = Cholinesterase (Equus caballus, UniProt P81908); assay: Inhibition of equine serum BChE by colorimetric Ellman's assay; conditions: for pIC50: read-out: IC50; for IC50: read-out: pIC50 (converted)
Chain of Cholinesterase (P81908 whole entry): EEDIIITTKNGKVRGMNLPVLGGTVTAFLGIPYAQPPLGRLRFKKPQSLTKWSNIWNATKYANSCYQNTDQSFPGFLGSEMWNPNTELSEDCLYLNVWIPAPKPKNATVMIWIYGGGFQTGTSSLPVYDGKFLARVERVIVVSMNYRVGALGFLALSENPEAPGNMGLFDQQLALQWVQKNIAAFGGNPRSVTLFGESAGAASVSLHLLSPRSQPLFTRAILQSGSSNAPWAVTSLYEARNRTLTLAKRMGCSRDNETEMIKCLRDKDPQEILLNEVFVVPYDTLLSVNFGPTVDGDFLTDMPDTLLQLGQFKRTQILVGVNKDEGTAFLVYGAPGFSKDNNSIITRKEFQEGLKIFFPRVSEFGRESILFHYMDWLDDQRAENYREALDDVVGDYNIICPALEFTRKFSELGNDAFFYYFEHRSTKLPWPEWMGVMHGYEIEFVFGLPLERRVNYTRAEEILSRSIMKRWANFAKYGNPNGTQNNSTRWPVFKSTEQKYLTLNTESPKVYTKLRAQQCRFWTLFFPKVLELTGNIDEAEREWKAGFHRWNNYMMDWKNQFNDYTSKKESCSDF

[2] = test system: Mycobacterium tuberculosis; assay: Antitubercular activity against replicating Mycobacterium tuberculosis H37Rv ATCC 27294 after 1 week by microplate alamar blue assay; assay type: functional; conditions: H37Rv ATCC 27294, 168 h
[3] = test system: Mycobacterium tuberculosis; assay: Antitubercular activity against replicating Mycobacterium tuberculosis H37Rv ATCC 27294 at 50 ug/ml after 1 week by microplate alamar blue assay; assay type: functional; conditions: H37Rv ATCC 27294, 168 h
[4] = test system: Mycobacterium tuberculosis; assay: Antitubercular activity against non-replicating Mycobacterium tuberculosis H37Rv ATCC 27294 incubated 10 days under anaerobic condition measured after 28 hrs of recovery in air by luciferase based low oxygen recovery assay; assay type: functional
[5] = test system: Mycobacterium tuberculosis; assay: Antitubercular activity against replicating Mycobacterium tuberculosis H37Rv ATCC 27294 at 20 ug/ml after 1 week by microplate alamar blue assay; assay type: functional; conditions: H37Rv ATCC 27294, 168 h

Chain of Acetylcholinesterase (O42275 whole entry): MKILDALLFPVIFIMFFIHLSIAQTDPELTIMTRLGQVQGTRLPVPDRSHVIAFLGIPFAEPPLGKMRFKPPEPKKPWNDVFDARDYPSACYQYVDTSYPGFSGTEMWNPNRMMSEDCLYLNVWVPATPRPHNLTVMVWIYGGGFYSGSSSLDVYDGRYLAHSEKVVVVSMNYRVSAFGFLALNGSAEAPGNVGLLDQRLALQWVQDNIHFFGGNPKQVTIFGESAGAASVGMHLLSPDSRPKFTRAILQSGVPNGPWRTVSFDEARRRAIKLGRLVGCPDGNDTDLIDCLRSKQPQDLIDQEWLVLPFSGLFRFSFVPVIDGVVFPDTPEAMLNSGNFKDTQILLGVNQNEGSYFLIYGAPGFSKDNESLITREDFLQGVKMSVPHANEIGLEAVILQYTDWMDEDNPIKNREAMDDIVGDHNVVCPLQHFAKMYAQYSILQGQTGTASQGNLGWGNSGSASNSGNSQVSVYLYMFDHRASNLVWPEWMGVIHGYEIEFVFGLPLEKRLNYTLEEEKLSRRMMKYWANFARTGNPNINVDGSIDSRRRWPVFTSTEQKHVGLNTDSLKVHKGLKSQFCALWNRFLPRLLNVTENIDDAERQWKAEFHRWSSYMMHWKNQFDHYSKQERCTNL

COC(=O)C1=C2Nc3ccccc3[C@@]23CCN2C[C@]4(C[C@@H]5C[C@]67CC(=O)O[C@H]6CCN6CC[C@@]8(c9cccc(OC)c9N(C4)[C@@H]58)[C@@H]67)[C@@H]4OCC[C@]4(C1)[C@H]23 [DEOXYVOBSTUSINE LACTONE]
pIC50 (Acetylcholinesterase): 4.04
inhibition at 100 µg/mL [1]: 35%
pIC50 (Cholinesterase): 4.69
MIC [2]: > 100 µg/mL

COC(=O)C1=C2Nc3ccccc3[C@@]23CCN2C[C@]4(C[C@@H]5C[C@]67CCO[C@H]6CCN6CC[C@@]8(c9cccc(OC)c9N(C4)[C@@H]58)[C@@H]67)[C@@H]4OCC[C@]4(C1)[C@H]23 [DEOXYVOBTUSINE]
pIC50 (Acetylcholinesterase): 4.06
pIC50 (Cholinesterase): 5.21
IC50 (Cholinesterase): 7.73 µM
MIC [2]: > 50 µg/mL
inhibition at 50 µg/mL [3]: 13%

COC(=O)C1=C2Nc3ccccc3[C@@]23CCN2[C@H](O)[C@]4(C[C@@H]5C[C@]67CC(=O)O[C@H]6CCN6CC[C@@]8(c9cccc(OC)c9N(C4)[C@@H]58)[C@@H]67)[C@@H]4OCC[C@]4(C1)[C@H]23 [GLOBOSPIRAMINE]
pIC50 (Acetylcholinesterase): 4.03
pIC50 (Cholinesterase): 4.79
IC50 (Cholinesterase): 16.3 µM
MIC [2]: 4 µg/mL (≈ 5.46 µM)
MIC [4]: 5.2 µg/mL (≈ 7.1 µM)

NNC(=O)c1ccncc1 [ISONIAZID]
MIC [2]: 0.68 µg/mL (≈ 4.96 µM)
MIC [4]: > 128 µg/mL

C=C(C)[C@@H]1CC[C@]2(C)CC[C@]3(C)[C@H](CC[C@@H]4[C@@]5(C)CC[C@H](O)C(C)(C)[C@@H]5CC[C@]43C)[C@@H]12 [LUPEOL]
MIC [2]: > 20 µg/mL
inhibition at 20 µg/mL [5]: 0%

COc1c(N2C[C@@H]3CCCN[C@@H]3C2)c(F)cc2c(=O)c(C(=O)O)cn(C3CC3)c12 [MOXIFLOXACIN]
MIC [2]: 0.83 µg/mL (≈ 2.07 µM)
MIC [4]: 33.2 µg/mL (≈ 82.7 µM)

CO[C@H]1/C=C/O[C@@]2(C)Oc3c(C)c(O)c4c(O)c(c(/C=N/N5CCN(C)CC5)c(O)c4c3C2=O)NC(=O)/C(C)=C\C=C\[C@H](C)[C@H](O)[C@@H](C)[C@@H](O)[C@@H](C)[C@H](OC(C)=O)[C@@H]1C [RIFAMPIN]
MIC [2]: 0.15 µg/mL (≈ 0.182 µM)
MIC [4]: 0.84 µg/mL (≈ 1.02 µM)

COC(=O)C1=C2Nc3ccccc3[C@@]23CCN2C[C@]4(C[C@@H]5C[C@]67CC(=O)C[C@H]6CCN6CC[C@@]8(c9cccc(OC)c9N(C4)[C@@]58O)[C@@H]67)[C@@H]4OCC[C@]4(C1)[C@H]23 [VOBTUSINE LACTONE]
pIC50 (Acetylcholinesterase): 4.05
pIC50 (Cholinesterase): 4.74
MIC [2]: > 50 µg/mL
inhibition at 50 µg/mL [3]: 13%
